In a melting point compilation (Tetko et al.; mined from patent text by program, amines drawn as free bases though some values may be those of a salt) one finds melting point data, which are given here for 88 molecules.

As a reminder, the melting point is the temperature, or range, at which the solid turns liquid.

The structures appear in SMILES notation. A value given as a limit tells only on which side of the number the result lay.

As to `O=C1N(Cc2ccc3c(c2)OCCO3)c2ccccc2C12COc1cc3c(cc12)OCCO3` (stereo not drawn), the melting point fell in the range of 120 to 123 °C. Regarding `CCCCN(C=O)C1CC(C)(C)N(O)C(C)(C)C1`, the melting point was in the range of 77 to 79 °C. For `COC(=O)c1ccc(C(C)(O)c2cc3cc(Cl)ccc3n2S(=O)(=O)c2ccc(C(C)C)cc2)cc1` (stereo not drawn), the melting point worked out at 163 °C. `COc1cc2ncc(C#N)c(Nc3ccc(Sc4ccccc4)c(Cl)c3)c2cc1OC`: the melting point was in the range of 124 to 130 °C. For `CC1(COC(=O)N2CCN(c3ccc(OC(F)(F)F)cc3)CC2)Cn2cc([N+](=O)[O-])nc2O1` (stereo not drawn) the value was 138 to 140 °C; for `CC(C(=O)O)c1ccc2nc(N)[nH]c2c1` (stereo not drawn), 300 °C; for `C[C@H](NC(=O)OC(C)(C)C)C(=O)N(CC(=O)N1CCC[C@H]1C(=O)OCc1ccccc1)C1Cc2ccccc2C1`, 135 to 136 °C.

`OC(CCCCBr)(c1ccc(F)cc1)c1ccc(F)cc1` yielded a melting point of 55 °C. For `CC(=O)c1ccc(Nc2c3ccccc3nc3occc23)cc1` the value was 220 to 221 °C. For `FC(F)(F)c1cccc(N2CCC(N=Cc3ccc[nH]3)=N2)c1` the value was 144 to 145 °C; for `N#CCNC(=O)c1cccc2ccccc12`, 160 to 163 °C; for `O=C(C#Cc1ccc(CCN2CCCC2)cc1)Nc1ccc(Cl)cc1`, 153 to 154 °C. For `O=[N+]([O-])c1cccc(C(Cl)=NN=C(Cl)c2ccc(C(F)(F)F)cc2)c1` the value was 78 to 80 °C; for `CCc1nc2cc(C(F)(F)F)c(Cl)cc2n1-c1ccc(CCOC(=O)NS(=O)(=O)c2ccccn2)cc1`, 127 to 130 °C; for `CN(C)c1cccc(C(=O)N2CCC3(CC2)CSC2=C(O3)c3ccccc3C(=O)C2=O)c1`, 170 to 172 °C. In turn, `NS(=O)(=O)c1ccc(-c2c(-c3ccccc3)noc2COCC(F)(F)CO)cc1` had a melting point of 93 to 94 °C. To `CC(C)(C)C(=O)Oc1ccc(CNC(=O)c2cccnc2Oc2ccc(F)cc2)cc1` belongs 91 to 93 °C. For `Nc1c(CC(=O)O)cccc1Oc1ccc(Cl)c(Cl)c1` the value was 125 to 127 °C; for `CC(C)(C(=O)O)c1ccc(C(=O)CCCN2CCC(=C3c4ccccc4CCc4ccccc43)CC2)cc1`, 122 to 125 °C; for `Cc1ccc(S(=O)(=O)OCC2Cc3cccc(Nc4ccc(Cl)cc4)c3O2)cc1` (stereo not drawn), 132 to 134 °C.

`CC(=O)NN=C(C)c1ccc2nnn(Cc3ccc4ncccc4c3)c2n1` showed a melting point of 249 to 251 °C.

For the molecule `CCOC(=O)Cn1c(=O)c2cc(CBr)ccc2n(Cc2ccc(Cl)c(Cl)c2)c1=O`, the melting point was in the range of 128 to 129 °C. For `COC(=O)Nc1nc2cc(-c3noc4ccccc34)ccc2[nH]1` the value was more than 300 °C; for `C[C@H](CO)Nc1cc(-n2cccn2)nc(-c2cccs2)n1`, 136 to 137 °C. As for `COc1cc(OC)nc(OC(C(=O)O)C(OC)(c2ccccc2)c2ccccc2)n1` (stereo not drawn), the melting point is 16 to 17 °C.

`CC(CO)N1c2ccccc2Sc2ccc(C#N)cc21` (racemic) gave a melting point of 123 °C. As for `COC(=O)c1cc(F)ccc1Nc1ccnc2c(Cl)cccc12`, the melting point was 196 °C. For the molecule `C=C=CC(=O)Nc1ccc2ncnc(Nc3cccc(Br)c3)c2c1`, the melting point lay in the range of 268 to 270 °C. Molecule `COc1cc(C(C)C)c2c(c1)S(=O)(=O)N(COC(=O)c1c(Cl)ccc(O)c1Cl)C2=O` registered a melting point of 152 to 154 °C. `O=C(Nc1ccc(F)cc1F)NC1(c2cccs2)CCCCC1`: the melting point was 175 to 177 °C. To `COc1ccc(N2CCN(N=O)CC2)cc1` belongs 94.5 °C; to `FC(F)(F)c1ccc2c(c1)nc(/C=C/c1ccccc1)n2-c1ccccn1`, 144 to 145 °C. `Fc1cccc(COc2ccc(Nc3ncnc4sc(C#Cc5ncccn5)cc34)cc2Cl)c1` gave a melting point of 225 °C. In the case of `CCN(CC)c1c(Cl)cc(C(O)CNC(C)(C)C)cc1Cl` (stereo not drawn), the melting point lay in the range of 93 to 96 °C.

In turn, `CC1CCC(NC(=O)NS(=O)(=O)c2ccc(CCNC(=O)N3CCC(C)CC3=O)cc2)CC1` (stereo not drawn) came in with a melting point of 190 to 191 °C.

Molecule `COc1ccc(Nc2ccc(OCc3ccccc3)cc2)c(C(C)=O)c1` had a melting point of 80 to 81.5 °C.

`c1ccc(SCCCSc2nnnn2-c2ccccc2)cc1`: the melting point fell in the range of 57 to 59 °C.

As to `CCn1nc(-c2sc(N)nc2-c2ccccc2)ccc1=O`, the melting point is 232 to 235 °C. With `OCc1ncccc1OCc1ccccc1`, the melting point is 78.7 to 79.2 °C. To `CCN(CC)c1ccc(F)c2nc(Nc3ccc(Cl)cc3Cl)[nH]c12` belongs 204 to 205 °C; to `CSCCCn1c(C)nc2c(N)nc3ccccc3c21`, 199 to 202 °C.

`COC(=O)c1cc2ccc(OCCc3ccccc3)cc2oc1=O`: the melting point is 100 to 101 °C. For `CC(C)OC(=O)C1C(=S)NCC1C` (stereo not drawn) the value was 41 to 44 °C; for `Cn1nc(-c2cccnc2)c2c(C(F)(F)F)cc(-c3cccc(CN4CCOCC4)c3)nc21`, 155 °C; for `Cc1ccc(C(=O)NC(NC(=S)Nc2ccccc2)C(F)(F)F)cc1` (stereo not drawn), 205 to 206 °C. To `COc1cc(Nc2nc3cccc(-c4ccccc4)c3o2)cc(OC)c1OC` belongs 182 to 185 °C; to `COc1cccc2c(=O)n3c(cc12)S(=O)(=O)CCC3`, 251 to 252 °C; to `Cc1cc(C=O)cc(Oc2nc(OCc3ccccc3)nc(OCc3ccccc3)c2C(C)C)c1`, 171 to 172 °C. For `c1ccc(-c2cc[nH]c2-c2ccccc2)cc1` the value was 130 to 131 °C; for `Cc1cc(C)nc(N(CSC(=S)N2CCCC2)C(=O)NS(=O)(=O)c2ccccc2Cl)n1`, 131 to 133 °C. Turning to `Cn1c(-c2ccccn2)cc(O)c(C(=N)c2ccccc2)c1=O`, the melting point was 242 to 245 °C. Regarding `CCc1noc(-c2ncc3[nH]c4c(c3c2COC)CCCC4)n1`, the melting point was in the range of 197 to 199 °C. The molecule `O=C1c2ccccc2C(=O)N1c1ccc(Cl)c2c1CC(CO)O2` (stereo not drawn) returned a melting point of 181 to 183 °C. To `COC(=O)c1ccc(OC(=O)CCC(=O)Oc2ccc(C(=O)OC)cc2)cc1` belongs 190 °C; to `CCc1ccc(C(=O)O)c(O)n1`, 190 to 193 °C; to `CC1=NN(c2ccccc2)C(=O)C1C=O` (stereo not drawn), 178 to 180 °C. For `CCOC(=O)c1cnc2nc(SCc3ccccc3)nn2c1C` the value was 98 to 99 °C.

`CCOC(=O)Cc1csc(NC(=O)C(Cc2ccccc2)NC(=O)OC(C)(C)C)n1` (stereo not drawn): the melting point was 119 to 120 °C. For `CNc1nc(NCc2ccc(NC(=O)c3ccc(Cl)nc3)cc2)c2c(C)cccc2n1` the value was 233 to 236 °C; for `O=[N+]([O-])c1ccc(F)c(-c2cccs2)c1`, 65 °C; for `Cc1c(C)c2c(c(C)c1NC(=O)c1cccs1)C(c1ccc(C(C)C)cc1)C(C)(C)O2` (stereo not drawn), 222 to 224 °C. As for `CC(=O)Nc1cc(C)c(N)c(C)c1`, the melting point was determined as 148 °C.

The molecule `Cc1ccc(S(=O)(=O)CC(=O)C(C)(C)C)cc1` registered a melting point of 119 to 122 °C.

For `CCC1CCN(C(=O)C(N)CCSCc2cn(C(c3ccccc3)(c3ccccc3)c3ccccc3)cn2)CC1` (stereo not drawn), the melting point lay in the range of 115 to 120 °C. To `Cc1cn2cc(NC(=O)c3cc4cc(F)ccc4n3Cc3cccc(F)c3)ccc2n1` belongs 200 to 203 °C; to `Cc1ccc(-c2ccccc2-c2c(OC(C)C)c(=O)c2=O)cc1`, 126 to 130 °C. For `CCCn1ncnc1COc1nc2c(nnn2-c2ccccc2)c2ccccc12` the value was 154 to 156 °C.

Consider `N#Cc1nc(N)nc(N)c1-c1ccc(Cl)cc1Cl`, for which the melting point was found to be 249 °C.

Regarding `O=C(O)CCc1ccc(OCc2cccc(-c3cncnc3)c2)cc1`, the melting point is 166 to 167 °C. For `CCCCCCCCCCCCCCCCC(=O)Nc1ccc(O)cc1` the value was 137 °C; for `COC(=O)c1csc(C)c1NS(=O)(=O)NC(=O)Nc1nc(OC)cc(OC)n1`, 174 °C. For `CCOC(=O)C1CCc2c(n(C(=O)c3ccc(Cl)cc3)c3ccc(Cl)cc23)C1` (stereo not drawn) the value was 129 to 132 °C. For `O=C(c1ccc(Cl)cc1Cl)N1CCC(=NO)c2ccc(Cl)cc21` the value was 231 to 232 °C; for `CCCCCCC(C(=O)N1CCCC1CC(=O)O)n1cnc2cc(-c3ccccc3-c3nn[nH]n3)ccc21` (stereo not drawn), 122 to 125 °C; for `CC(=O)N[C@H]1CC[C@H](CCN2CCN(c3nc(C)cc4c3CCO4)CC2)CC1`, 218 °C. `O=C(Nc1cc(-c2nc3ccccc3[nH]2)ccn1)c1ccccc1` showed a melting point of 145 to 146 °C. `Cn1cnc2c1c1n[nH]c(=O)n1c(=O)n2Cc1ccccc1`: the melting point turned out to be 295 °C. Turning to `CSC1=Nc2ccc(Cl)cc2Cn2nnnc21`, the melting point was in the range of 131 to 133 °C. To `Clc1ccc2c(c1)N=C(NCCCn1ccnc1)c1ccccc1N2` belongs 228 to 230 °C. For `COC(C)(C)C#Cc1ncn2c1CN(C)C(=O)c1ccccc1-2` the value was 136 to 137 °C; for `CN(C)CC(=O)NN=Cc1c(-c2ccccc2)nn2ccccc12`, 172 to 173 °C; for `Cc1ccc(C)n1-c1ccc(C(C)NO)cc1` (stereo not drawn), 109 to 111 °C.

In turn, `Oc1ccc2c(-c3ccco3)nn(Cc3ccccc3F)c2n1` displayed a melting point of 250 °C. For `Cc1ncc(-c2ccc3[nH]c4c(cc(-c5ccc(Cl)cc5Cl)c(=O)n4C)c3c2)o1` the value was 338 to 340 °C; for `COC(=O)CS(=O)(=O)Nc1ccc(F)c(C(F)(F)F)c1`, 111 to 112 °C; for `O=C(Nc1cccc(S(=O)(=O)NCc2cccnc2)c1)c1cnn2c(C(F)F)cc(-c3ccc(C(F)(F)F)cc3)nc12`, 256 °C. As for `O=C1N(C(c2ccccc2)c2ccccc2)c2ccccc2C12COc1cc3c(cc12)OCCO3` (stereo not drawn), the melting point lay within 183 to 185 °C.

`O=C1CCCC2=C1C(c1cccc([N+](=O)[O-])c1)C=C(C(F)(F)F)N2` (stereo not drawn) returned a melting point of 215 to 216 °C.
